Tested on: durch CCl4 induzierte Leberfibrose in Ratten
Assay: Effect of prolyl hydroxylase inhibitors on CCl4-induced liver fibrosis in rats: serum bilirubin, bile acids, gamma GT
Type: in vivo
Settings: rat serum, 20 mg/kg total daily oral dose; for Bile acids / Bilirubin / Gamma GT: CCl4 then compound, mean ± standard deviation; for Bile acids: prozentuale Verbesserung gegenüber einer ausschließlichen CCl4-Behandlung / Bilirubin: prozentuale Verbesserung gegenüber einer ausschließlichen CCl4-Behandlung / Gamma GT: prozentuale Verbesserung gegenüber einer ausschließlichen CCl4-Behandlung: value in brackets
Excerpt: Um die effiziente Inhibitierung der Prolin-hydroxylase und der Lysin-hydroxylase durch die Verbindungen gemäß der Erfindung zu zeigen, werden die Konzentrationen von Bilirubin, Bile-Säuren und Gamma GT im Serum von • a) unbehandelten Ratten (Kontrolle), • b) mit CCl₄ behandelten Ratten, • c) Ratten, denen zuerst CCl₄ und anschließend eine Verbindung gemäß der Erfindung gegeben wurden, gemessen. (Die Methode ist beschrieben von Rouiller, C., Experimental toxic injury of the liver; in The Liver, C. Rouiller, Vol. 2, Seiten 335-476, New York, Academic Press 1964).
Die Ergebnisse sind in Tabelle 1 zusammengefaßt.

SMILES	Bile acids	Bilirubin	Gamma GT	Bile acids: prozentuale Verbesserung gegenüber einer ausschließlichen CCl4-Behandlung [%]	Bilirubin: prozentuale Verbesserung gegenüber einer ausschließlichen CCl4-Behandlung [%]	Gamma GT: prozentuale Verbesserung gegenüber einer ausschließlichen CCl4-Behandlung [%]
COCCNC(=O)c1cc[n+]([O-])c(C(=O)NCCOC)c1 [Beispiel 1, Pyridin-2,4-dicarbonsäure-di-N,N'-(2-methoxyethyl)amid-N-oxid]	97 ± 76	6,30 ± 5,4 µm	4,3 ± 3,1 U/L	0	0	27
COCCCNC(=O)c1cc[n+]([O-])c(C(=O)NCCCOC)c1 [Beispiel 2, Pyridin-2,4-dicarbonsäure-di-N,N'-(3-methoxypropyl)amid-N-oxid]	71 ± 42	2,90 ± 0,94 µm	3,3 ± 2,2 U/L	18	65	59
